Key:
[1] = microbe, parasite or virus in culture; conditions: Mycobacterium tuberculosis, 72 h, read-out: pIC50 (converted)
[2] = microbe, parasite or virus in culture; conditions: Mycobacterium tuberculosis, 96 h, read-out: pIC50 (converted)

SMILES	IC50 [1] [µM]	IC50 [2] [µM]
CCC(NC(=O)NCCCOC)C(C)C (stereo unspecified)	> 501	> 501
CC(NCc1cccc2c1OCCO2)c1ccncc1 (stereo unspecified)	99.1	153
Cc1c(C(=O)NC2=NCCS2)oc2ccccc12	279	247
COc1ccccc1NC(=O)c1ccc(C)nc1	> 501	> 501
COc1cccc(CNCCn2cccn2)c1OC	196	> 501
O=C(c1ccccn1)N1CCC2(CCCC2)CC1	245	160
NCCc1cccc2cc[nH]c12	177	211
O=C1CCCN1CCCNS(=O)(=O)c1ccc(Br)s1	> 501	6.97
CC(C)Oc1cccc(CN(C)C(=O)Cc2ccon2)c1	> 50.1	> 50.1
Cc1cc(Br)cc(C(=O)NCc2nccc(N)n2)c1	> 501	> 501
Cc1cc(CN2CCC(Oc3cccnc3)CC2)on1	> 501	> 501
CC1CCCN(c2nc(C(=O)N3CCOCC3)cs2)C1 (stereo unspecified)	133	146
Cc1c[nH]c(C(=O)NC2COc3ccccc3C2)n1 (stereo unspecified)	> 501	> 501
CCOc1ccc(C(=O)Nc2ccnc(C)c2)cn1	279	> 501
CC(C)Sc1nnc(-c2cccnc2)o1	8.8	219
O=C1NC2(CCCN(C(=O)CCn3cccn3)C2)Oc2ccccc21 (stereo unspecified)	39.4	> 50.1
O=C1COC2(CCN(c3ccccn3)CC2)CN1	> 50.1	> 50.1
COc1cc2c(cc1CNC(Cc1cccs1)c1nccs1)OCO2 (stereo unspecified)	> 50.1	17.3
C=C(C)COCCNC(=O)c1c(O)cccc1F	> 501	> 501
Cc1nc(C(=O)NCc2cccs2)ccc1C#N	82.4	64.4
COCCN(C)S(=O)(=O)c1cc(F)c(C)cc1F	465	> 501
Cc1ccc(C(=O)NCc2ccc3c(c2)OCCO3)o1	115	71.5
Cc1ccccc1C(=O)N1CC[C@@H]2CN(c3ncccn3)CCO[C@@H]2C1	> 50.1	> 50.1
Cc1nc(-c2c[nH]c(C(=O)N3CCCC3)c2)cs1	241	427
CCOCC(C)Nc1ccc(C)c(S(C)(=O)=O)c1 (stereo unspecified)	188	221
COc1ccc(C(=O)CCN(C)C)cc1	114	294

SMILES	IC50 [1] [µM]	IC50 [2] [µM]
CCn1cncc1CNc1ccc(-c2nc(CC(C)C)no2)cn1	> 50.1	5.92
COCCN(C)CCNC(=O)c1cc2ccccc2[nH]1	> 501	> 501
COc1ccccc1C(C)NC(=O)Cn1cc(C)cn1 (stereo unspecified)	226	> 501
OCCOCCNCC(O)COCc1ccccc1Cl (stereo unspecified)	> 501	> 501
NCC(=O)N1CCCC(CCc2ccccc2F)C1 (stereo unspecified)	271	256
NC1CCN(c2ncccc2F)C1 (stereo unspecified)	462	> 501
Cn1cc(C(N)=O)c(NC(=O)c2ccc(Br)cc2)n1	257	> 501
CSCC(C)(O)CNc1nnnn1-c1ccccc1 (stereo unspecified)	306	290
CCO[C@H]1CN(c2nc(-c3ccccc3)no2)C[C@@H]1O	262	> 501
CNCC(O)CN1CCc2ccccc2CC1 (stereo unspecified)	254	289
CN(C)C(=O)CN1CCCC1c1ccc(F)cc1 (stereo unspecified)	96.3	143
N#Cc1cccc(C(=O)OCCCn2cccn2)c1	> 501	> 501
CCc1ccc(CNc2ccc(CO)cn2)cc1	160	356
CC(C)C(=O)N1CCC(C(=O)c2ccc(O)cc2)CC1	5.6	> 501
CCCn1ccc(NC(=O)c2cccc(C#N)c2)n1	> 501	> 501
Cn1cncc1CN1CCCC1c1cncc(Oc2ccc(F)cc2)n1 (stereo unspecified)	19.4	> 50.1
COc1cccc(S(=O)(=O)CCN2CCC(O)CC2)c1	397	> 501
CCc1ccccc1OC1CN(C(=O)c2ccsc2)C1	8.19	> 50.1
COC[C@@H]1CN(C)C(=O)[C@@H]2CCN(Cc3ccco3)CC[C@H]12	> 50.1	> 50.1
Cc1c(Br)cccc1S(=O)(=O)NCCN	212	> 501
CC(=O)Nc1ccc(N2CCCCC2)nc1	97.2	95.3
CCN(CCn1cccn1)C(=O)c1cc(C(C)C)no1	> 501	> 501
COCCCOC1CN(C(=O)c2ccc(Cl)cn2)C1	2.73	84.6
CSCCN(C)Cc1cn(-c2ccccc2)nn1	> 501	> 501
CCCS(=O)(=O)NCCOc1ccc(C#N)cc1	220	291
COCCN(Cc1cccs1)C(=O)CC1CCNC1 (stereo unspecified)	159	329

SMILES	IC50 [1] [µM]	IC50 [2] [µM]
Cc1cc(NCCCC(F)(F)F)n2nc(C)cc2n1	15.6	10.2
CC[C@H](N)C(=O)N(C)CCOc1cccc(Cl)c1	377	263
Nc1nccnc1C(=O)NCc1ccccc1	294	> 501
CC(C)C(=O)NCCCNC(=O)c1ccc(F)cc1O	125	> 501
Cc1cc(CN2CCc3nc(C(C)C)nc(O)c3CC2)c(C)s1	> 50.1	> 50.1
COc1cccc(-c2noc(-c3ccc(NCCCO)nc3)n2)c1OC	> 50.1	21.2
COCCNc1ccc(C#N)cc1	> 501	280
NCc1cccc(S(=O)(=O)NCc2cccc(F)c2)c1	232	> 501
Cc1cccc(NC(=O)C(C)Oc2ccc3c(c2)OCO3)n1 (stereo unspecified)	16	5.27
OCCCNC(c1ccccc1)c1ccccn1 (stereo unspecified)	> 501	> 501
CCC(C)(C)NC(=O)c1nnn(-c2ccccc2)c1C	311	282
CN(C)C(=O)c1csc(N2CCCCC2)n1	46.6	58.7
Clc1ccc(N2CCN(Cc3ncc[nH]3)CC2)nc1	311	> 501
Cn1ccc(C(=O)NCc2csc(Br)c2)cc1=O	> 501	> 501
N#Cc1ccc(C(=O)NCC2CC2)cc1	123	123
O=C(Nc1cccc(Cl)c1)C1CCCN1 (stereo unspecified)	147	> 501
C=C(C)COc1c(Cl)cc(C(N)=O)cc1OC	223	295
COc1cccc(CCN)n1	194	192
O=C(NCCOCc1ccccc1)c1ccco1	249	245
NC(=O)CC1CCN(C(=O)Cc2ccc(Cl)cc2)CC1	> 501	> 501
CCC(CO)Nc1nccc(C(F)(F)F)n1 (stereo unspecified)	> 501	> 501
N#CCCN1CCCN(c2ccc(C#N)cc2)CC1	232	262
Nc1nc(-c2c(F)cccc2F)co1	> 501	> 501
CCC(C)(C)NC(=O)c1nn(-c2ccccc2)nc1C	199	298
NCc1cnn(-c2ccc(Br)cc2)c1	147	196
CC(C)(C)OC(=O)c1ncccc1N	> 501	265

From ChEMBL document CHEMBL3988442, “University of Dundee, Small-Polar-MMV Screening Library” (2021)
